The nature of series [1]: Water adsorption (hygroscopicity) of salts of compound (I). To be noted: for Water adsorbed: dried 1 h at 25° C. under dry nitrogen flow. The format is physicochemical. As for the experimental part:
Free base of compound (I) (3 g; 7.95 mmol) was dissolved in absolute ethanol (40 mL) and heated to 78° C. An acid (HCl 6M in 2-propanol, 2.0 ml (12 mmol); HBr 48% in water, 0.98 mL (8.75 mmol); methane sulphonic acid, 917 mg (9.54 mmol); ethane sulphonic acid, 1.05 g (9.54 mmol) or p-toluene sulphonic acid monohydrate (1.66 g (8.75 mmol)) was added to the hot reaction mixture. The reaction mixture was allowed to cool to room temperature. The resulting precipitate was filtered off, washed with ethanol and dried under vacuum at 60° C.
The obtained solids were analysed by acid titration, Karl-Fisher titration and HPLC. A physical characterisation was performed (DSC, TGA, XRD and IR, DVS).

Series [2] in a line: Water solubility of salts of compound (I). It counts as physicochemical. To be noted: 24 hours at 20° C.; for Measured pH: saturated solution in water; for Solubility: water, UV spectrometry. As for the experimental part:
An excess of different salts of compound (I) was agitated with water during 24 hours at 20° C. Following filtration, the concentration of compound (I) in the solution was determined by UV spectrometry.

The conditions of series [3]: rat, in vivo, po.
Protocol: (§1) Five male SD rats (225±11 g) were used per salt form. From each rat a complete plasma concentration time profile was obtained. Tap water and food were available ad libitum. The test involved salts of compound (I) with HBr, HCl, methanesulphonic acid (mesylate), ethanesulphonic acid (esylate) or p-toluenesulphonic acid (tosylate). The individual salts were dispersed in a 0.5% methocel suspension to a final concentration of 1 mg base eq./ml. The formulations were stored at room temperature.
(§2) Administration was oral by gastric intubation: 10 ml/kg to obtain a dose of 10 mg base eq./kg.
(§3) Blood samples were collected 30 min, 1, 2, 4, 7 and 24 h after dose administration.
(§4) Blood was collected by multiple sampling from a tail vein into Multivette® 600 K3E tubes (Sarstedt). Samples were placed immediately on melting ice and plasma was obtained following centrifugation at 4° C. for 10 minutes at approximately 1900×g. All samples were shielded from daylight and stored at ≦−18° C. prior to analysis.
(§5) A limited pharmacokinetic analysis was performed using WinNonlin™ Professional (Version 5.1). A non-compartmental analysis using the lin/log trapezoidal rule with lin/log interpolation was used for all data.
Series [4] is described as follows: Aqueous solubility of Forms I, III and hydrate at different pH. The format is physicochemical. How it is done: Solubility of polymorph Forms I and III and the hydrate form of the compound of formula (I) was tested in aqueous conditions at different pH values.
The nature of series [5]: Slurry conversions on Form III and Form III/hydrate (XRPD). Further details: key: Form III; hydrate. The format is physicochemical. How it is done:
20 mg Form III with 0.25 ml solvent (2-propanol; or 2-propanone/water (8/2, v/v); or methanol/water (8/2, v/v)) was deposited in a vial. For each solvent, 3 vials were prepared and stored each at different temperatures (4° C., RT, 40° C.) for two days. After storage, the slurry was spread on a paper filter, the solid fractions were collected and dried 2 hours at RT. In a further experiment, the Form III was seeded with the hydrate using methanol/water (8/2, v/v) as the solvent. The polymorphic composition was measured using XRPD.

Series [6] is described as follows: Thermal conversions in DSC oven (XRPD). The format is physicochemical. As for the experimental part: Form III or hydrate form were thermally treated in a DSC oven (heating rate 10° C./min) up to selected temperatures (isotherm for 1 min) using an open sample pan. The selected temperatures are for Form III: 110° C. and 170° C.; and for hydrate form: 70° C., 110° C. and 170° C. The polymorphic composition of the obtained fractions was measured by XRPD. Table 12 summarises XRPD patterns in DSC treated Form III. Table 13 summarises XRPD patterns in DSC treated hydrate

Series [7] can be described thus: Absorption and plasma kinetics after oral administration of salts to rat. The following applies: male SD rats, oral 10 mg base eq./kg.
Protocol: as §1, §2, §3, §4, §5

Converted amounts (≈) assume the structure as drawn. Read-outs that look alike come from different tables or passages of the source.

As a reminder, the Tmax is the time at which the peak concentration occurs. Usually Cmax stands for the maximum level reached in the sampled fluid or tissue.

In the case of `CCS(=O)(=O)O.Cn1cc(-c2ccc3nnc(C(F)(F)c4ccc5ncccc5c4)n3n2)cn1` [esylate salt], the Hygroscopicity result in series [1] is listed as “hygroscopic”. Moreover, the Water adsorbed result in series [1] (at high relative humidity) is on record as “up to 34%”. For the same compound, in series [2], the “Measured pH” value was “pH = 2.1” and the Solubility is 0.025 g/100 ml H2O. Moreover, in series [3], the Tmax amounted to 1.6 ± 0.5 h and the “t1/2 (4-24 h)” value is listed as 3.3 ± 0.4 h.

With `Cn1cc(-c2ccc3nnc(C(F)(F)c4ccc5ncccc5c4)n3n2)cn1` [Form III, 6-{difluoro[6-(1-methyl-1H-pyrazol-4-yl)[1,2,4]triazolo[4,3-b]pyridazin-3-yl]methyl}quinoline], the Solubility worked out at 78 µg/mL (≈ 207 µM) in series [4] (0.01 HCl); 970 µg/mL (≈ 2570 µM) in series [4] (0.1 HCl); 130 µg/mL (≈ 345 µM) in series [4] (pH2); 3 µg/mL (≈ 7.95 µM) in series [4] (pH4); 1 µg/mL (≈ 2.65 µM) in series [4] (pH6); 1 µg/mL (≈ 2.65 µM) in series [4] (pH8). For the same compound, in series [4] (pH10), the Solubility is 2 µg/mL (≈ 5.3 µM). Besides, the “Polymorphic composition (XRPD) after slurry” value in series [5] (2-propanol, 4° C., two days) is on record as “III”; in series [5] (2-propanol, 40° C., two days), “III”; in series [5] (2-propanol, RT, two days), “III”; in series [5] (2-propanone/water (8/2, v/v), 4° C., two days), “hy”; in series [5] (2-propanone/water (8/2, v/v), 40° C., two days), “hy”; in series [5] (2-propanone/water (8/2, v/v), RT, two days), “hy”. Moreover, the “Polymorphic composition (XRPD) after slurry” value in series [5] (methanol/water (8/2, v/v) containing hydrate seeds, 4° C.) was “III”; in series [5] (methanol/water (8/2, v/v) containing hydrate seeds, 40° C.), “III”; in series [5] (methanol/water (8/2, v/v) containing hydrate seeds, RT) it was “III”; in series [5] (methanol/water (8/2, v/v), 4° C., two days) it was “III”; in series [5] (methanol/water (8/2, v/v), 40° C., two days) it was “III”; in series [5] (methanol/water (8/2, v/v), RT, two days), “III”. For the same compound, the XRPD measured composition entry in series [6] (DSC treated Form III, up to 110° C.) is listed as “Form III”; in series [6] (DSC treated Form III, up to 170° C.), “Form I”; in series [6] (starting Form III), “Form III”.

Regarding `Cc1ccc(S(=O)(=O)O)cc1.Cn1cc(-c2ccc3nnc(C(F)(F)c4ccc5ncccc5c4)n3n2)cn1` [tosylate salt], the Hygroscopicity result in series [1] is recorded as “non-hygroscopic”. The Water adsorbed result in series [1] (depending on the atmospheric humidity) was “up to 0.2%”. In series [2], the “Measured pH” value is “pH = 2.1” and the Solubility is reported as 0.023 g/100 ml H2O. The “Plasma concentration, Mean ± SD” value in series [7] (0.5 hours, 0.5% methocel suspension (LLOQ given in ng/ml)) is reported as 2193 ± 1031. Moreover, in series [7] (1 hour), the “Plasma concentration, Mean ± SD” value is 2998 ± 1349. For the same compound, the “Plasma concentration, Mean ± SD” value in series [7] (2 hours) was determined as 3274 ± 995. Moreover, the “Plasma concentration, Mean ± SD” value in series [7] (4 hours) is 2512 ± 960. Further, the “Plasma concentration, Mean ± SD” value in series [7] (7 hours) is recorded as 1625 ± 537. Moreover, the “Plasma concentration, Mean ± SD” value in series [7] (24 hours) came out at 47.9 ± 24.0. Further, in series [7] (Mean ± SD), the AUC0-24 h stood at 24307 ± 7457 ng·h/mL, the AUC0-inf was determined as 24558 ± 7503 ng·h/mL, the Cmax amounted to 3380 ± 944 ng/mL and the Tmax is on record as 2.0 ± 1.2 h. Besides, the “t1/2 (4-24 h)” value in series [7] (Mean ± SD) came to 3.4 ± 0.6 h.

For `CS(=O)(=O)O.Cn1cc(-c2ccc3nnc(C(F)(F)c4ccc5ncccc5c4)n3n2)cn1` [mesylate salt], the Hygroscopicity entry in series [1] is given as “hygroscopic”. Further, the Water adsorbed result in series [1] (at high relative humidity) is listed as “up to 4.5%”. In series [2], the “Measured pH” value is given as “pH = 1.9” and the Solubility turned out to be 0.047 g/100 ml H2O. Besides, in series [3], the Tmax was determined as 1.2 ± 0.4 h and the “t1/2 (4-24 h)” value was 3.7 ± 0.6 h.

The record behind these values is patent US8629144B2, “Polymorphic and hydrate forms, salts and process for preparing 6-{difluoro[6-(1-methyl-1H-pyrazol-4-yl)[1,2,4]triazolo[4,3-b]pyridazin-3-yl]methyl}quinoline” (Janssen Pharmaceutica NV, priority 2007, dated 2014).
